Results: the supplement of paper PMC11061612

How the values were obtained:
Assay in all cases: Bliss excess, mean over the matrix (fraction); higher = more synergy
AM-38 (Glioblastoma) = tested on: AM-38 (Glioblastoma)
Outline: (§1)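 Cell lines grown in DMEM/F12 or RPMI with 10% FBS were plated in 1536-well plates and held 24 hours at 37°C, 5% CO2 before 72 hours of exposure to two-drug dose matrices, with DMSO typically at 0.2%. CellTiter-Glo 2.0 luminescence gave viability, which was converted to inhibition. Vehicle wells were set to 0 and blank wells to 1. Combination Emax is the second-highest inhibition in the matrix, and Bliss excess is the observed combination effect minus the expected EA + EB − EA·EB, where EA and EB are the single-agent effects.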

[1] = tested on: CL-11 (Colorectal Carcinoma)
Outline: as §1

[2] = tested on: IA-LM (Non-Small Cell Lung Carcinoma)
Outline: as §1

[3] = tested on: KP-4 (Pancreatic Carcinoma)
Outline: as §1

[4] = tested on: MOLT-13 (T-Lymphoblastic Leukemia)
Outline: as §1

[5] = tested on: NMC-G1 (Low Grade Glioma)
Outline: as §1

[6] = tested on: OAW-28 (Ovarian Carcinoma)
Outline: as §1

[7] = tested on: P30-OHK (B-Lymphoblastic Leukemia)
Outline: as §1

[8] = tested on: RCC-JW (Kidney Carcinoma)
Outline: as §1

[9] = tested on: SAT (Head and Neck Carcinoma)
Outline: as §1

[10] = tested on: SK-CO-1 (Colorectal Carcinoma)
Outline: as §1

SK-N-SH (Neuroblastoma) = tested on: SK-N-SH (Neuroblastoma)
Outline: as §1

[11] = tested on: SNU-423 (Hepatocellular Carcinoma)
Outline: as §1

[12] = tested on: SiHa (Cervical Carcinoma)
Outline: as §1

| Compound | Bliss excess (AM-38 (Glioblastoma)) | Bliss excess [1] | Bliss excess [2] | Bliss excess [3] | Bliss excess [4] | Bliss excess [5] | Bliss excess [6] | Bliss excess [7] | Bliss excess [8] | Bliss excess [9] | Bliss excess [10] | Bliss excess (SK-N-SH (Neuroblastoma)) | Bliss excess [11] | Bliss excess [12] |
| --- | --- | --- | --- | --- | --- | --- | --- | --- | --- | --- | --- | --- | --- | --- |
| Cc1c2c(nn1C)CSCc1cc(n(C)n1)CSc1cc(c3ccccc3c1)OCCCc1c(C(=O)O)n(C)c3c-2c(Cl)ccc13 [AZD5991] + C=CCn1c(=O)c2cnc(Nc3ccc(N4CCN(C)CC4)cc3)nc2n1-c1cccc(C(C)(C)O)n1 [AZD1775] (first compound max 1 µM, partner max 1 µM) | -0.0015 | -0.0112 | -0.0011 | -0.0245 | -0.0071 | -0.0012 | 0.0049 | 0.0077 | 0.0418 | 0.0173 | -0.0425 | -0.0163 | -0.0976 | -0.0646 |
| Cc1c2c(nn1C)CSCc1cc(n(C)n1)CSc1cc(c3ccccc3c1)OCCCc1c(C(=O)O)n(C)c3c-2c(Cl)ccc13 [AZD5991] + C[C@@H]1COCCN1C2=NC(=NC(=C2)C3(CC3)[S@](=N)(=O)C)C4=C5C=CNC5=NC=C4 [AZD6738] (first compound max 1 µM, 7x7, partner max 10 µM) | 0.0312 | 0.0322 | 0.0255 | 0.0389 | 0.0186 | 0.0188 | 0.0799 | 0.0592 | 0.0192 | 0.0466 | -0.0164 | -0.0225 | 0.0026 | 0.0122 |
| CN(CCO)CC[C@H](CSc1ccccc1)Nc1ccc(S(=O)(=O)NC(=O)c2ccc(N3CCC([C@@H](O)c4ccccc4-c4ccc(Cl)cc4)CC3)cc2)cc1S(=O)(=O)C(F)(F)F [AZD4320] + Cn1cnc2c(F)c(Nc3ccc(Br)cc3Cl)c(C(=O)NOCCO)cc21 [Selumetinib] (first compound max 1 µM, 7x7, partner max 3 µM) | 0.0746 | 0.0489 | 0.0652 | -0.0025 | 0.0816 | -0.0624 | 0.0927 | 0.0291 | -0.0079 | 0.0523 | 0.0154 | 0.0457 | -0.0228 | -0.0315 |
| CC1(C)CCC(CN2CCN(c3ccc(C(=O)NS(=O)(=O)c4ccc(NCC5CCOCC5)c([N+](=O)[O-])c4)c(Oc4cnc5[nH]ccc5c4)c3)CC2)=C(c2ccc(Cl)cc2)C1 [Venetoclax] + C[C@@H](Nc1cc(F)cc(F)c1)c1cc(C(=O)N(C)C)cc2c(=O)cc(N3CCOCC3)oc12 [AZD8186] (first compound max 1 µM, 7x7, partner max 3 µM) | -0.0259 | -0.0397 | -0.0416 | -0.0205 | 0.095 | -0.0256 | 0.0551 | 0.149 | 0.0135 | 0.0036 | -0.0782 | 0.0249 | 0.0364 | 0.0009 |
| CC1(C)CCC(CN2CCN(c3ccc(C(=O)NS(=O)(=O)c4ccc(NCC5CCOCC5)c([N+](=O)[O-])c4)c(Oc4cnc5[nH]ccc5c4)c3)CC2)=C(c2ccc(Cl)cc2)C1 [Venetoclax] + CCN(CCO)CCCOc1ccc2c(Nc3cc(CC(=O)Nc4cccc(F)c4)[nH]n3)ncnc2c1 [AZD2811] (first compound max 1 µM, 7x7, partner max 1 µM) | -0.0506 | -0.0137 | -0.053 | -0.0338 | 0.055 | -0.0253 | 0.0375 | 0.0653 | -0.0068 | -0.0043 | 0.0082 | 0.0471 | -0.0381 | -0.0107 |
| CC1(C)CCC(CN2CCN(c3ccc(C(=O)NS(=O)(=O)c4ccc(NCC5CCOCC5)c([N+](=O)[O-])c4)c(Oc4cnc5[nH]ccc5c4)c3)CC2)=C(c2ccc(Cl)cc2)C1 [Venetoclax] + COc1cc(Nc2ncc3c(n2)-c2ccc(Cl)cc2C(c2c(F)cccc2OC)=NC3)ccc1C(=O)O [Alisertib] (first compound max 1 µM, 7x7, partner max 10 µM) | 0.0101 | -0.0062 | -0.0469 | -0.0542 | 0.0148 | -0.0125 | 0.0736 | 0.178 | -0.0415 | -0.0525 | 0.0901 | 0.0326 | 0.0176 | -0.0669 |
| Cc1c2c(nn1C)CSCc1cc(n(C)n1)CSc1cc(c3ccccc3c1)OCCCc1c(C(=O)O)n(C)c3c-2c(Cl)ccc13 [AZD5991] + Cn1cnc2c(F)c(Nc3ccc(Br)cc3Cl)c(C(=O)NOCCO)cc21 [Selumetinib] (first compound max 1 µM, 7x7, partner max 3 µM) | 0.0517 | -0.0222 | -0.0299 | -0.0165 | 0.0203 | -0.0243 | 0.089 | 0.0011 | -0.0319 | 0.0193 | -0.0218 | -0.0515 | -0.0599 | 0.0015 |
| CC1(C)CCC(CN2CCN(c3ccc(C(=O)NS(=O)(=O)c4ccc(NCC5CCOCC5)c([N+](=O)[O-])c4)c(Oc4cnc5[nH]ccc5c4)c3)CC2)=C(c2ccc(Cl)cc2)C1 [Venetoclax] + Cn1cnc2c(F)c(Nc3ccc(Br)cc3Cl)c(C(=O)NOCCO)cc21 [Selumetinib] (first compound max 1 µM, 7x7, partner max 3 µM) | -0.108 | -0.0494 | -0.0248 | -0.0521 | 0.241 | -0.0531 | 0.0047 | 0.036 | -0.0396 | 0.0334 | 0.001 | 0.083 | -0.11 | -0.0516 |
| CC(=O)Nc1cccc(-n2c(=O)n(C3CC3)c(=O)c3c(Nc4ccc(I)cc4F)n(C)c(=O)c(C)c32)c1 [Trametinib] + Cc1nc(-c2cn3c(n2)-c2ccc(-c4cnn(C(C)(C)C(N)=O)c4)cc2OCC3)n(C(C)C)n1 [Taselisib] (first compound max 1 µM, 7x7, partner max 10 µM) | 0.117 | 0.139 | 0.0972 | 0.0745 | 0.153 | 0.0478 | 0.158 | 0.151 | 0.0114 | -0.0373 | 0.0523 | 0.077 | 0.0727 | 0.0162 |
| COc1cccc(OCCCN)c1-c1cc(Nc2cnc(C#N)cn2)n[nH]1 [Prexasertib] + C[C@@H]1COCCN1C2=NC(=NC(=C2)C3(CC3)[S@](=N)(=O)C)C4=C5C=CNC5=NC=C4 [AZD6738] (first compound max 1 µM, 7x7, partner max 10 µM) | -0.0074 | -0.058 | 0.0439 | 0.0072 | 0.002 | 0.0155 | 0.0102 | -0.0333 | 0.0671 | -0.0238 | -0.0469 | -0.0425 | 0 | 0.0191 |
| Cc1c2c(nn1C)CSCc1cc(n(C)n1)CSc1cc(c3ccccc3c1)OCCCc1c(C(=O)O)n(C)c3c-2c(Cl)ccc13 [AZD5991] + Cc1cc2ncnn2cc1Nc1ncc2c(n1)n(C1CCOCC1)c(=O)n2C [AZD7648] (first compound max 1 µM, 7x7, partner max 10 µM) | -0.0347 | -0.0533 | -0.0226 | -0.0261 | -0.0085 | -0.0606 | 0.0125 | -0.0222 | -0.0349 | -0.0599 | -0.0402 | -0.0211 | -0.0768 | -0.0234 |
